Measured values published in patent US9186361B2, “Compounds and compositions for the treatment of parasitic diseases” (Novartis AG, priority 2013, dated 2015).

Assays:
[1] = tested on: L. donovani HU3 strain in mouse peritoneal macrophages; experiment: Proliferation of L. donovani in mouse peritoneal macrophages (SybrGreen, high-content imaging); assay type: cell-based; conditions: Leishmania donovani, Peritoneal macrophage, 120 h; infected mouse peritoneal macrophages, 5 days; read-out: L. donavani Macrophage EC50
Description: The activity of a compound according to the present invention for inhibition of parasitemai can be assessed by the parasite proliferation assay. The assay measures the increase in the parasite number in the assayed plate well using a DNA intercalating dye, SYBR Green I® dye (INVITROGEN) to stain Leishmania cell nuclei. It is understood that the assays illustrate the invention without in any way limiting the scope of the invention.
L. donovani HU3 strain is propagated by infecting BALBc mice through tail vein injection with 10^7 Leishmania parasites. Infected mice are allowed to develop infection during 9-11 weeks post-infection. During this time, the parasites accumulate in the infected mouse spleens to large numbers, and the infected mice serve as the source of parasites for the in vitro measurement of compound efficacies. To assay a compound for anti-leishmanial activity, peritoneal macrophages isolated from non-infected BALBc mice are seeded into 384-well plates at density 2×10^4 macrophages per well in 25 mL of medium (RPMI1640, 10% fetal serum albumin, 10 mM HEPES, 1 mM sodium pyruvate, 1% Pen/Strep). Subsequently, the seeded plates are placed into an incubator set to maintain 37° C. temperature and atmosphere with 5% CO2. The next day, Leishmania parasites are isolated from the spleens of mice infected for 9-11 weeks and 4×10^5 isolated parasites in […] of the above media are added to each plate well. Plates are then returned into incubators and infection is allowed to proceed for 24 hours. After the infection of macrophages is completed, […] of compounds of the invention in the above medium, which also contains 5% DMSO, are added to plate wells containing infected macrophages. At the same time control compounds (miltefosine and amphotericin B) and DMSO are added to plates to serve as the positive and negative controls, respectively. After the compound addition, the plates are returned into incubator and cells infected with parasites are cultured for 5 days. At the end of cultivation, […] of 8% paraformaldehyde is added to plate wells and incubated for 15 min at room temperature. Following the incubation, the paraformaldehyde from plate wells is aspirated, and […] of PBS containing 0.2% Triton X-100 is added to wells. After 15 min incubation, the solution is aspirated from wells again, and replaced with SybrGreen Dye solution in PBS (1:125,000 dilution). Infected cells are imaged with Evotec Opera high-content microscope, and the number of parasites in well is determined by counting parasite nuclei visualized by staining with SybrGreen dye. The percentage inhibition of 50%, EC50, is calculated for each compound.
The inhibitory efficacy of the compounds of the invention against proliferation of L. donovani in mouse peritoneal macrophages is provided in Table I.

[2] = tested on: Leishmania donovani axenic amastigote parasites; experiment: Assay for Leishmania proliferation in vitro (axenic amastigotes, Cell TiterGlo); assay type: cell-based; conditions: 48 h, 2 day incubation, read-out: L. donovani amastigotes EC50
Description: Leishmania donovani axenic amastigote parasites are grown at 37° C., 5% CO2 in media made of RPMI 1640, 4 mM L-glutamine, 20% heat inactivated FBS, 100 units/ml of penicillin and 100 μg/ml of streptomycin, 23 μM Folic Acid, 100 μM Adenosine, 22 mM D-glucose, 25 mM MES. The pH of media is adjusted to 5.5 at 37° C. using HCl. 20 μL of media is first dispensed into 384 well plates and […] of the compounds of invention in DMSO are added to the plate wells. At the same time control compounds and DMSO are added to plates to serve as the positive and negative controls, respectively. 40 μL of parasite culture (9600 parasites) are then added to the plate wells. The plates are then placed into incubators. After 2 day incubation, 20 μL of Cell TiterGlo (Promega) is added to the plate wells. The luminescence signal of each well is measured using the Envision reader (Perkin Elmer). The percentage inhibition of 50%, EC50, is calculated for each of the compounds.

Row | Structure (SMILES) | EC50 [1] [µM] | EC50 [2] [µM]
1 | Cc1cnc(C(=O)Nc2cnc3nc(-c4cc(NC(=O)c5ccco5)ccc4Cl)[nH]c3c2)s1 [Example 1, N-{2-[2-chloro-5-(furan-2-amido)phenyl]-1H-imidazo[4,5-b]pyridin-6-yl}-5-methyl-1,3-thiazole-2-carboxamide] | 0.72 | 0.13
2 | CC(C)OC(=O)Nc1ccc(Cl)c(-c2nc3ncc(NC(=O)OC(C)C)cc3[nH]2)c1 [Example 4, propan-2-yl N-[2-(2-chloro-5-{[(propan-2-yloxy)carbonyl]amino}phenyl)-1H-imidazo[4,5-b]pyridin-6-yl]carbamate] | 0.83 | 0.44
3 | CN(C)c1cnc2nc(-c3cc(NC(=O)c4ccco4)ccc3Cl)[nH]c2c1 [Example 13, N-{4-chloro-3-[6-(dimethylamino)-1H-imidazo[4,5-b]pyridin-2-yl]phenyl}furan-2-carboxamide] | 8.6 | 2.35
4 | Cc1ccc(C(=O)Nc2ccc(Cl)c(-c3nc4ncc(NC(=O)OC(C)C)cc4[nH]3)c2)o1 [Example 17, propan-2-yl N-{2-[2-chloro-5-(5-methylfuran-2-amido)phenyl]-1H-imidazo[4,5-b]pyridin-6-yl}carbamate] | 13.3 | 7.6
5 | CC(C)(N)COC(=O)Nc1cnc2nc(-c3cc(NC(=O)c4ccco4)ccc3Cl)[nH]c2c1 [Example 23, 2-amino-2-methylpropyl N-{2-[2-chloro-5-(furan-2-amido)phenyl]-1H-imidazo[4,5-b]pyridin-6-yl}carbamate] | 34.1 | 21
6 | O=C(Nc1ccc(Cl)c(-c2nc3ncc(NCC4CCNCC4)cc3[nH]2)c1)c1ccco1 [Example 27, N-(4-chloro-3-{6-[(piperidin-4-ylmethyl)amino]-1H-imidazo[4,5-b]pyridin-2-yl}phenyl)furan-2-carboxamide] | > 50 | > 25
7 | CC(C)(C)OC(=O)N1CC[C@H](CC(=O)Nc2cnc3nc(-c4cc(NC(=O)c5ccco5)ccc4Cl)[nH]c3c2)C1 [Example 28] | > 50 | > 25
8 | Cc1ccc(C(=O)Nc2ccc(Cl)c(-c3nc4ncc(N)cc4[nH]3)c2)o1 [Example 29, N-(3-{6-amino-1H-imidazo[4,5-b]pyridin-2-yl}-4-chlorophenyl)-5-methylfuran-2-carboxamide] | > 50 | > 25
9 | CC(C)(N)CNc1cnc2nc(-c3cc(NC(=O)c4ccco4)ccc3Cl)[nH]c2c1 [Example 31, N-(3-{6-[(2-amino-2-methylpropyl)amino]-1H-imidazo[4,5-b]pyridin-2-yl}-4-chlorophenyl)furan-2-carboxamide] | > 50 | > 25
10 | O=C(Nc1ccc(Cl)c(-c2nc3ncc(NC(=O)C4(C(F)(F)F)CCC4)cc3[nH]2)c1)c1ccco1 [Example 37, N-[4-chloro-3-(6-{[1-(trifluoromethyl)cyclobutane]amido}-1H-imidazo[4,5-b]pyridin-2-yl)phenyl]furan-2-carboxamide] | 0.53 | 0.85
11 | CN(C)CC(=O)Nc1cnc2nc(-c3cc(NC(=O)c4ccco4)ccc3Cl)[nH]c2c1 [Example 40, N-(4-chloro-3-{6-[2-(dimethylamino)acetamido]-1H-imidazo[4,5-b]pyridin-2-yl}phenyl)furan-2-carboxamide] | 8.5 | > 25
12 | CN(C)/C=N/c1cnc2nc(-c3cc(NC(=O)c4ccco4)ccc3Cl)[nH]c2c1 [Example 50, N-(4-chloro-3-{6-[(E)-[(dimethylamino)methylidene]amino]-1H-imidazo[4,5-b]pyridin-2-yl}phenyl)furan-2-carboxamide] | 5.1 | 6
13 | CN(C)S(=O)(=O)Nc1cnc2nc(-c3cc(NC(=O)c4ccco4)ccc3Cl)[nH]c2c1 [Example 51, N-(4-chloro-3-{6-[(dimethylsulfamoyl)amino]-1H-imidazo[4,5-b]pyridin-2-yl}phenyl)furan-2-carboxamide] | 8.8 | > 25
14 | CC(C)S(=O)(=O)Nc1cnc2nc(-c3cc(NC(=O)c4ccc(C#N)o4)ccc3Cl)[nH]c2c1 [Example 60, N-{4-chloro-3-[6-(propane-2-sulfonamido)-1H-imidazo[4,5-b]pyridin-2-yl]phenyl}-5-cyanofuran-2-carboxamide] | 17.9 | 2.43
15 | NC(=O)C1(C(=O)Nc2cnc3nc(-c4cc(NC(=O)c5ccco5)ccc4Cl)[nH]c3c2)CC1 [Example 64, 1-N-{2-[2-chloro-5-(furan-2-amido)phenyl]-1H-imidazo[4,5-b]pyridin-6-yl}cyclopropane-1,1-dicarboxamide] | > 50 | 21.1
16 | NCCCNc1cnc2nc(-c3cc(NC(=O)c4ccc(F)o4)ccc3Cl)[nH]c2c1 [Example 69, N-(3-{6-[(3-aminopropyl)amino]-1H-imidazo[4,5-b]pyridin-2-yl}-4-chlorophenyl)-5-fluorofuran-2-carboxamide] | > 50 | > 25
17 | O=CNc1cnc2nc(-c3cc(NC(=O)c4ccc(F)o4)ccc3Cl)[nH]c2c1 [Example 74, N-(4-chloro-3-{6-formamido-1H-imidazo[4,5-b]pyridin-2-yl}phenyl)-5-fluorofuran-2-carboxamide] | > 50 | 10.8
18 | CC(C)OC(=O)Nc1cnc2nc(-c3cc(NC(=O)N4CCCC4)ccc3Cl)oc2c1 [Example 75, propan-2-yl N-(2-{2-chloro-5-[(pyrrolidin-1-yl)carbonylamino]phenyl}-[1,3]oxazolo[4,5-b]pyridin-6-yl)carbamate] | 0.166 | 0.132
19 | CC(C)OC(=O)Nc1cnc2nc(-c3cc(NC(=O)c4ccco4)ccc3Cl)oc2c1 [Example 76, propan-2-yl N-(2-{2-chloro-5-[(furan-2-yl)carbonylamino]phenyl}-[1,3]oxazolo[4,5-b]pyridin-6-yl)carbamate] | 0.45 | 0.26
20 | CC(C)S(=O)(=O)Nc1cnc2nc(-c3cccc(NC(=O)c4ccc(F)o4)c3)[nH]c2c1 [Example 77, 5-fluoro-N-{3-[6-(propane-2-sulfonamido)-1H-imidazo[4,5-b]pyridin-2-yl]phenyl}furan-2-carboxamide] | 22.9 | > 25
